From ChEMBL document CHEMBL5316290, “Targeted Protein Degradation Induced by HEMTACs Based on HSP90” (J Med Chem, 2023)
Activity calls are given as the source filed them. The rule behind the calls is not given here.

Key:
B16-F10 [1] = experiment: Induction of apoptosis in mouse B16-F10 cells assessed as late apoptotic cells at 250 nM incubated for 48 hrs by Annexin V-FITC/PI staining based flow cytometry analysis (reference value: 1.97%); format: functional
A-375 = experiment: Cytotoxicity against human A-375 cells assessed as inhibition of cell growth incubated for 72 hrs by CCK-8 assay; format: functional, cell-based; details: A-375, 72 h
B16-F10 [2] = experiment: Induction of apoptosis in mouse B16-F10 cells assessed as dead cells at 125 nM incubated for 48 hrs by Annexin V-FITC/PI staining based flow cytometry analysis (reference value: 1.75%); format: functional
B16-F10 [3] = experiment: Induction of cell cycle arrest in mouse B16-F10 cells assessed as accumulation of cells at S phase at 250 nM incubated for 24 hrs by RNase/PI staining based flow cytometry analysis (reference value: 12.45%); format: functional
B16-F10 [4] = experiment: Induction of cell cycle arrest in mouse B16-F10 cells assessed as accumulation of cells at G1 phase at 125 nM incubated for 24 hrs by RNase/PI staining based flow cytometry analysis (reference value: 68.89%); format: functional
B16-F10 [5] = experiment: Anticancer activity against mouse B16-F10 cells implanted in C57BL/6J mouse assessed as increase in necrosis at 20 mg/kg, ip administered once daily for 2 weeks and measured every 2 days by H and E staining based analysis; format: functional, organism-based
[6] = target: T1, HSP90/Cyclin-dependent kinase 4 (Mus musculus) (UniProt P30285+P07901+P11499); experiment: HEMTAC activity at HSP90/CDK4 in mouse B16-F10 cells assessed as reduction in CDK4 protein level at 0.5 uM incubated for 24 hrs by global proteomics analysis; format: cell-based
[7] = target: T1, HSP90/Cyclin-dependent kinase 4 (Mus musculus); experiment: HEMTAC activity at HSP90/CDK4 in mouse B16-F10 cells assessed as induction of CDK4 degradation at 0.1 uM incubated for 24 hrs in presence of palbociclib by Western blot analysis; format: cell-based
B16-F10 [8] = experiment: Induction of apoptosis in mouse B16-F10 cells assessed as live cells at 250 nM incubated for 48 hrs by Annexin V-FITC/PI staining based flow cytometry analysis (reference value: 92.85 %); format: functional
[9] = target: T1, HSP90/Cyclin-dependent kinase 4 (Mus musculus); experiment: HEMTAC activity at HSP90/CDK4 in mouse B16-F10 cells assessed as induction of CDK4 degradation at 0.5 uM pretreated with proteasome inhibitor, MG132 for 2 hrs followed by compound addition and measured after 24 hrs by Western blot analysis; format: cell-based
[10] = Acute toxicity in zebra fish embryos incubated for 72 hrs; set-up: species or system Danio rerio; details: zebrafish
B16-F10 [11] = experiment: Inhibition of cell migration in mouse B16-F10 cells at 0.25 to 1 uM by wound healing assay; format: functional, cell-based; details: dose 0.25-1 µM
[12] = target: T2, HSP90/Cyclin-dependent kinase 6 (Mus musculus) (UniProt P07901+Q64261+P11499); experiment: HEMTAC activity at HSP90/CDK6 in mouse B16-F10 cells assessed as induction of […] degradation by measuring maximal degradation incubated for 24 hrs by Western blot analysis relative to control; format: cell-based
MDA-MB-231 = experiment: Cytotoxicity against human MDA-MB-231 cells assessed as inhibition of cell growth incubated for 72 hrs by CCK-8 assay; format: functional, cell-based; details: MDA-MB-231, 72 h
B16-F10 [13] = experiment: Binding affinity to HSP90/CDK6 in mouse B16-F10 assessed as ternary complex formation at 5 uM incubated for 6 hrs by co-immunoprecipitation assay; format: cell-based
B16-F10 [14] = experiment: Anticancer activity against mouse B16-F10 cells implanted in C57BL/6J mouse assessed as reduction in CDK4/6 positive cells in tumor at 20 mg/kg, ip administered once daily for 2 weeks and measured every 2 days by immunohistochemical analysis; format: functional, organism-based
[15] = target: T1, HSP90/Cyclin-dependent kinase 4 (Mus musculus); experiment: HEMTAC activity at HSP90/CDK4 in mouse B16-F10 cells assessed as induction of CDK4 degradation at 0.5 uM measured after 12 hrs by Western blot analysis; format: cell-based
B16-F10 [16] = experiment: Induction of apoptosis in mouse B16-F10 cells assessed as late apoptotic cells at 125 nM incubated for 48 hrs by Annexin V-FITC/PI staining based flow cytometry analysis (reference value: 1.97%); format: functional
A549 = experiment: Cytotoxicity against human A549 cells assessed as inhibition of cell growth incubated for 72 hrs by CCK-8 assay; format: functional, cell-based; details: A549, 72 h
B16-F10 [17] = experiment: Induction of apoptosis in mouse B16-F10 cells assessed as dead cells at 250 nM incubated for 48 hrs by Annexin V-FITC/PI staining based flow cytometry analysis (reference value: 1.75%); format: functional
B16-F10 [18] = experiment: Induction of apoptosis in mouse B16-F10 cells assessed as early apoptotic cells at 250 nM incubated for 48 hrs by Annexin V-FITC/PI staining based flow cytometry analysis (reference value: 3.42%); format: functional
B16-F10 [19] = experiment: Induction of apoptosis in mouse B16-F10 cells assessed as live cells at 125 nM incubated for 48 hrs by Annexin V-FITC/PI staining based flow cytometry analysis (reference value: 92.85 %); format: functional
B16-F10 [20] = experiment: Inhibition of colony formation in mouse B16-F10 cells at 0.25 to 1 uM incubated for 7 days with media replacement for every 2 days by crystal violet staining based analysis; format: functional, cell-based; details: dose 0.25-1 µM, time 7.0 day
B16-F10 [21] = experiment: Anticancer activity against mouse B16-F10 cells xenografted in zebra fish embryos assessed as inhibition of cell growth at 1 uM measured at 6 days post fertilization; format: functional, cell-based; details: time 6.0 day
B16-F10 [22] = experiment: Induction of cell cycle arrest in mouse B16-F10 cells assessed as accumulation of cells at G2 phase at 125 nM incubated for 24 hrs by RNase/PI staining based flow cytometry analysis (reference value: 16.13%); format: functional
Lung = experiment: Downregulation of CDK4/6 protein level in lung of C57BL/6J mouse implanted with mouse B16-F10 cells at 20 mg/kg, ip administered once daily for 2 weeks and measured every 2 days by immunohistochemical analysis; format: functional, organism-based
B16-F10 [23] = experiment: Induction of apoptosis in mouse B16-F10 cells assessed as early apoptotic cells at 125 nM incubated for 48 hrs by Annexin V-FITC/PI staining based flow cytometry analysis (reference value: 3.42%); format: functional
B16-F10 [24] = experiment: Cytotoxicity against mouse B16-F10 cells assessed as inhibition of cell growth incubated for 72 hrs by CCK-8 assay; format: functional, cell-based; details: B16-F10, 72 h
B16-F10 [25] = experiment: Induction of cell cycle arrest in mouse B16-F10 cells assessed as accumulation of cells at G1 phase at 250 nM incubated for 24 hrs by RNase/PI staining based flow cytometry analysis (reference value: 68.89%); format: functional
[26] = target: HSP90/Cyclin-dependent kinase 6 (Mus musculus, UniProt P07901+P11499+Q64261); experiment: HEMTAC activity at HSP90/CDK6 in mouse B16-F10 cells assessed as induction of […] degradation incubated for 24 hrs by Western blot analysis; format: cell-based
HepG2 = experiment: Cytotoxicity against human HepG2 cells assessed as inhibition of cell growth incubated for 72 hrs by CCK-8 assay; format: functional, cell-based; details: HepG2, 72 h
[27] = target: T2, HSP90/Cyclin-dependent kinase 6 (Mus musculus); experiment: HEMTAC activity at HSP90/CDK6 in mouse B16-F10 cells assessed as induction of […] degradation at 0.5 uM pretreated with proteasome inhibitor, MG132 for 2 hrs followed by compound addition and measured after 24 hrs by Western blot analysis; format: cell-based

For COc1c(C)cnc(Cn2cc(C#CCCn3cc(CNC(=O)CN4CCN(c5ccc(Nc6ncc7c(C)c(C(C)=O)c(=O)n(C8CCCC8)c7n6)nc5)CC4)nn3)c3c(Cl)nc(N)nc32)c1C, the Activity (B16-F10 [1]) was 15.1%, the IC50 (A-375) was 0.126 µM and the Activity (B16-F10 [2]) was 1.77%. For the same compound, the Activity (B16-F10 [3]) was 2.08%, the Activity (B16-F10 [4]) was 74.01% and the Activity (B16-F10 [5]) was “Active”. The Activity [6] was “Active”, the Activity [7] was “inactive” and the Activity (B16-F10 [8]) was 62.24%. The Activity [9] was “inactive”, the LC50 at 72 h [10] was over 100 µM and the inhibition (B16-F10 [11]) was “Active”. For the same compound, the Emax [12] was 92%, the IC50 (MDA-MB-231) was 0.313 µM and the Activity (B16-F10 [13]) was “Active”. For the same compound, the Activity (B16-F10 [14]) was “Active”, the Activity [15] was “Active” and the Activity (B16-F10 [16]) was 11.55%. The IC50 (A549) was 0.86 µM, the Activity (B16-F10 [17]) was 2.55% and the Activity (B16-F10 [18]) was 20.11%. For the same compound, the Activity (B16-F10 [19]) was 72.27%, the inhibition (B16-F10 [20]) was “Active” and the inhibition (B16-F10 [21]) was “Active”. For the same compound, the Activity (B16-F10 [22]) was 18.05%, the Activity (Lung) was “inactive” and the Activity (B16-F10 [23]) was 14.42%. The IC50 (B16-F10 [24]) was 0.112 µM, the Activity (B16-F10 [25]) was 81.26% and the EC50 [26] was 0.019 µM. For the same compound, the IC50 (HepG2) was 0.499 µM and the Activity [27] was “inactive”.
